The values that follow are results of earlier work, collected in patent US20150366901A1, “Methods of Treating Heart Failure” (The Trustees of the University of Pennsylvania, priority 2013, published 2015).

One data set concerns old mice. As to conditions: supplementation for 3 weeks, 478 AU before, young counterparts 332 AU.
The test system of another data set is healthy volunteers. As to conditions: ingestion of 8 mmol, 3 hours post-ingestion.
The conditions of data set [1]: nitrite formed from nitrate by oral cavity commensal bacteria.

Some results are limits rather than exact numbers.

With `O=NO` [sodium nitrite], in the data set on old mice, the “aortic pulse wave velocity (PWV) after supplementation” value is 384 AU.
For the compound inorganic nitrate, in the data set on healthy volunteers, the “aortic pulse wave velocity” value is “decrease in aortic pulse wave velocity”.
As to `O=[N+]([O-])O` [nitrate], where the note is “circulating nitrate”, the half-life in plasma was roughly 5 h. The “share of circulating nitrate actively taken up by the salivary glands” value (concentrated in saliva, rest excreted by the kidneys) is on record as “Up to 25%”.
In the case of `O=NO` [nitrite], the oral bioavailability in data set [1] is listed as greater than 95%.
